Values after ≈ are worked out from the molar mass of the structure shown.
Key:
Type in all cases: functional
[1] = tested on: Staphylococcus aureus; assay: Antimicrobial activity against methicillin-resistant Staphylococcus aureus ST398 expressing cfr, fexA, erm(A), tet(M) and mecA genes
[2] = tested on: Staphylococcus aureus; assay: Antimicrobial activity against methicillin-susceptible Staphylococcus aureus ST9 expressing cfr, fexA and erm(C) genes
[3] = tested on: Staphylococcus aureus; assay: Antimicrobial activity against Staphylococcus aureus RN4220
[4] = tested on: Staphylococcus aureus; assay: Antimicrobial activity against Staphylococcus aureus RN4220 transformed with Staphylococcus aureus ST398 plasmid pSCFS3 carrying cfr and fexA genes
[5] = tested on: Staphylococcus aureus; assay: Antimicrobial activity against Staphylococcus aureus RN4220 transformed with Staphylococcus aureus ST9 plasmid pSCFS3 carrying cfr and fexA genes

CS(=O)(=O)c1ccc([C@@H](O)[C@@H](CF)NC(=O)C(Cl)Cl)cc1 [FLORFENICOL]
MIC [1]: ≥ 128 µg/mL
MIC [2]: ≥ 128 µg/mL
MIC [3]: 2 µg/mL (≈ 5.58 µM)
MIC [4]: 128 µg/mL (≈ 357 µM)
MIC [5]: 128 µg/mL (≈ 357 µM)

CC[C@H]1OC(=O)[C@H](C)[C@@H](O[C@H]2C[C@@](C)(OC)[C@@H](O)[C@H](C)O2)[C@H](C)[C@@H](O[C@@H]2O[C@H](C)C[C@H](N(C)C)[C@H]2O)[C@](C)(O)C[C@@H](C)C(=O)[C@H](C)[C@@H](O)[C@]1(C)O [ERYTHROMYCIN]
MIC [1]: ≥ 64 µg/mL
MIC [2]: ≥ 64 µg/mL
MIC [3]: 0.25 µg/mL (≈ 0.341 µM)
MIC [4]: 0.25 µg/mL (≈ 0.341 µM)
MIC [5]: 0.25 µg/mL (≈ 0.341 µM)

O=C(N[C@H](CO)[C@H](O)c1ccc([N+](=O)[O-])cc1)C(Cl)Cl [CHLORAMPHENICOL]
MIC [1]: ≥ 128 µg/mL
MIC [2]: ≥ 128 µg/mL
MIC [3]: 4 µg/mL (≈ 12.4 µM)
MIC [4]: ≥ 128 µg/mL
MIC [5]: ≥ 128 µg/mL

CN(C)[C@@H]1C(O)=C(C(N)=O)C(=O)[C@@]2(O)C(O)=C3C(=O)c4c(O)cccc4[C@@](C)(O)[C@H]3C[C@@H]12 [TETRACYCLINE]
MIC [1]: 64 µg/mL (≈ 144 µM)
MIC [2]: 0.12 µg/mL (≈ 0.27 µM)
MIC [3]: 0.25 µg/mL (≈ 0.563 µM)
MIC [4]: 0.25 µg/mL (≈ 0.563 µM)
MIC [5]: 0.25 µg/mL (≈ 0.563 µM)

CCC[C@@H]1C[C@@H](C(=O)N[C@@H]([C@H]2O[C@H](SC)[C@H](O)[C@@H](O)[C@H]2O)[C@H](C)Cl)N(C)C1 [CLINDAMYCIN]
MIC [1]: ≥ 64 µg/mL
MIC [2]: ≥ 64 µg/mL
MIC [3]: 0.125 µg/mL (≈ 0.294 µM)
MIC [4]: ≥ 64 µg/mL
MIC [5]: ≥ 64 µg/mL

CC1=C\[C@@H](O)CC(=O)Cc2nc(co2)C(=O)N2CCC=C2C(=O)O[C@H](C(C)C)[C@H](C)/C=C/C(=O)NC\C=C\1 [VIRGINIAMYCIN FACTOR M1]
MIC [1]: 128 µg/mL (≈ 244 µM)
MIC [2]: 128 µg/mL (≈ 244 µM)
MIC [3]: 4 µg/mL (≈ 7.61 µM)
MIC [4]: 128 µg/mL (≈ 244 µM)
MIC [5]: 128 µg/mL (≈ 244 µM)

CC(=O)NC[C@H]1CN(c2ccc(N3CCOCC3)c(F)c2)C(=O)O1 [LINEZOLID]
MIC [2]: 8 µg/mL (≈ 23.7 µM)
MIC [3]: 0.5 µg/mL (≈ 1.48 µM)

Cc1onc(-c2ccccc2)c1C(=O)N[C@@H]1C(=O)N2[C@@H]1SC(C)(C)[C@@H]2C(=O)O [OXACILLIN]
MIC [1]: ≥ 32 µg/mL
MIC [2]: 0.06 µg/mL (≈ 0.149 µM)
MIC [3]: 0.06 µg/mL (≈ 0.149 µM)
MIC [4]: 0.06 µg/mL (≈ 0.149 µM)
MIC [5]: 0.06 µg/mL (≈ 0.149 µM)

C=C[C@]1(C)C[C@@H](OC(=O)CSCCN(CC)CC)[C@]2(C)[C@H](C)CC[C@]3(CCC(=O)[C@H]32)[C@@H](C)[C@@H]1O [TIAMULIN]
MIC [1]: ≥ 128 µg/mL
MIC [2]: ≥ 128 µg/mL
MIC [3]: 0.063 µg/mL (≈ 0.128 µM)
MIC [4]: ≥ 128 µg/mL
MIC [5]: ≥ 128 µg/mL

Source: ChEMBL document CHEMBL1629628, “Methicillin-resistant and -susceptible Staphylococcus aureus strains of clonal lineages ST398 and ST9 from swine carry the multidrug resistance gene cfr” (2009)
